Experimental findings from US20230321253A1, “BIFUNCTIONAL COMPOUNDS AND PHARMACEUTICAL USES THEREOF” (RISEN (SUZHOU) PHARMA TECH CO., LTD., priority 2022, published 2023) are described below.

Each structure is given as a SMILES string.

One experiment deals with T1, KRAS-G12D protein (Homo sapiens, UniProt P01116, G12D).
T1 construct: host or cells: Aspc-1 cells
T1 sequence (P01116 1-188 isoform P01116-2 G12D): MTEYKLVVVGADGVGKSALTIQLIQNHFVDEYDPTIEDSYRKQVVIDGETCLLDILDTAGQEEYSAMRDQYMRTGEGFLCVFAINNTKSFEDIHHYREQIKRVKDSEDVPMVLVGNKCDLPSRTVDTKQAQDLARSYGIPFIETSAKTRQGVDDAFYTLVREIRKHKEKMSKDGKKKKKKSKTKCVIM
Description: KRAS-G12D protein degradation study in Aspc-1 cells (western blot). It counts as cell-based. The settings on record: ASPC1, 24 h, Aspc-1 cells treated with 50 nM compound, 24 hours; read-out: Rate of degradation (KRAS^G12D). On the procedure: Aspc-1 (Cobioer, CBP60546) cells in exponential growth phase were inoculated on a 6-well cell culture plate (Corning, 3516) at density of 1E6/well; and cells in the plate were cultured in 37° C. incubator containing 5% carbon dioxide. The next day, test compounds were dissolved in DMSO (Sigma, RNBF5902) for the preparation of a 10 mM concentration stock solution. The stock solution was diluted with complete medium (RPMI-1640 supplemented with 10% fetal bovine serum, 1% penicillin-streptomycin), yielding working solutions of various concentrations. The plate, after the addition of compounds, was placed in a 5% carbon dioxide incubator, and incubated at 37° C. for 24 hours (final DMSO concentration was 0.1%). The plate was then removed from the incubator, and the cells were washed twice with precooled PBS (Gibco, 14190250), followed by addition of 80 μL RIPA lysis buffer (containing protease inhibitor (Invitrogen™, AM2696)) to each well. The adherent cells were scraped off with a cell scraper, and the cell lysate was transferred to a 1.5 mL centrifuge tube followed with a 30-minute incubation on ice. The lysate was then clarified with centrifugation at 14000 rpm for 10 min at 4° C. The supernatant was transferred into a new 1.5 mL centrifuge tube, and protein concentration was measured with BCA protein detection kit (Thermo Fisher, 23225). KRAS-G12D protein level was assessed by western blot.
A mixture of cell lysate (40 μL) and loading buffer (10 μL 5×SDS (Beyotime, P0015L)) was denatured in a water bath at 95° C. for 10 min. The denatured protein sample, at 30 μL/well, was loaded into the corresponding well of a 4-20% Bis-Tris gel (Kingsley, M00656). Protein samples were initially electrophoresed at 80 V for 30 minutes, followed by 120 V for 40 minutes, until the bromophenol blue strip ran to an appropriate position. After electrophoresis, iBlot2 (Life Technologies, IB21001) was used to transfer the separated samples onto PVDF film. The PVDF membrane was washed with double-distilled water and then blocked in TBST (Thermo Scientific, 28360) buffer containing 5% non-fat milk, for 2 hours. Blocked membrane was rinsed with tris-buffered saline tween-20 (Thermo Scientific, 28360, TBST) three times, 10 minutes each. Membrane was then incubated with 1:1000 diluted KRAS primary antibody (CST, cat #14429S) overnight at 4° C. Membrane was rinsed as described previously followed by 1 hour incubation of secondary antibody at room temperature. After washing the film three times with TBST, ECL color developing solution was applied, and image was captured with Biorad Chemi Doc gel imager. The band gray value was quantified (Image Lab), and protein degradation level was calculated according to the following formula:
Level of RAS protein expression=(RAS-compound/GAPDH)/(RAS-DMSO/GAPDH)
Level of degradation (%)=(1−Rate of RAS protein expression)×100
The symbols “−”, “+”, “++”, and “+++” indicate that the degradation level of KRAS^G12D protein induced by the test compounds was 10% or less, 11 to 30%, 31 to 60%, and greater than 60%, respectively.
Half-maximum degradation concentrations (DC50s) of exemplary test compounds were calculated using GraphPad Prism and their values are shown in Table 6. The symbols “++++”, “+++”, “++” and “+” indicate DC50 equal or less than 10 nM, 11-50 nM, 51-100 nM, and 101-200 nM, respectively.
Take `C#Cc1c(F)ccc2cc(O)cc(-c3ncc4c(N5CC6CCC(C5)N6)nc(OCC5(CN6CCN(c7ccc(NC8CCC(=O)NC8=O)cc7F)CC6)CC5)nc4c3F)c12` (centres unmarked) [Compound 124]: the inhibition at 0.05 µM was in the range of 11 to 30%.
On the same count and under the same terms, the result for `C#Cc1c(F)ccc2cc(O)cc(-c3ncc4c(N5CC6CCC(C5)N6)nc(OCC5(CN6CCC7(CCN(c8ccc(NC9CCC(=O)NC9=O)cc8F)CC7)C6)CC5)nc4c3F)c12` (centres unmarked) [Compound 125] reads 31 to 60%; that for `C#Cc1c(F)ccc2cc(O)cc(-c3ncc4c(N5CC6CCC(C5)N6)nc(OCC5(CN6CCN(C(=O)CN7CCN(c8ccc(C(=O)NC9CCC(=O)NC9=O)nc8)CC7)CC6)CC5)nc4c3F)c12` (centres unmarked) [Compound 126], not above 10%.
Still for that read-out and setting: as for `C#Cc1c(F)ccc2cc(O)cc(-c3ncc4c(N5CC6CCC(C5)N6)nc(OCC5(CN6CCC7(CC6)CCN(c6ccc8c(c6)C(=O)N(C6CCC(=O)NC6=O)C8=O)CC7)CC5)nc4c3F)c12` (centres unmarked) [Compound 127], the figure is more than 60%.
For the molecule `Cn1nc(C2CCC(=O)NC2=O)c2ccc(C3CCN(CC(=O)N4CCN(CC5(COc6nc(N7CC8CCC(C7)N8)c7cnc(-c8cc(N)cc(Cl)c8C(F)(F)F)c(F)c7n6)CC5)CC4)CC3)cc21` (centres unmarked) [Compound 128], the inhibition at 0.05 µM is more than 60%.
Take `C#Cc1c(F)ccc2cc(O)cc(-c3ncc4c(N5CC6CCC(C5)N6)nc(OCC5(CN6CC(CN7CCN(c8ccc(C(=O)NC9CCC(=O)NC9=O)nc8)CC7)C6)CC5)nc4c3F)c12` (centres unmarked) [Compound 134]: the inhibition at 0.05 µM was 11 to 30%.
As to `C#Cc1c(F)ccc2cc(O)cc(-c3ncc4c(N5CC6CCC(C5)N6)nc(OCC5(CN6CCC(CN7CCN(c8ccc(C(=O)NC9CCC(=O)NC9=O)nc8)CC7)CC6)CC5)nc4c3F)c12` (centres unmarked) [Compound 136], the inhibition at 0.05 µM is not above 10%.
The same measure, in the same setting: the result for `C#Cc1c(F)ccc2cc(O)cc(-c3ncc4c(N5CC6CCC(C5)N6)nc(OCC5(CN(C)C(=O)CC(C)(C)CC(=O)N6CCC(c7ccc8c(C9CCC(=O)NC9=O)nn(C)c8c7)CC6)CC5)nc4c3F)c12` (centres unmarked) [Compound 137] reads not above 10%; that for `C#Cc1c(F)ccc2cc(O)cc(-c3ncc4c(N5CC6CCC(C5)N6)nc(OCC5(CN6CC7CN(C(=O)CN8CCC(c9ccc%10c(C%11CCC(=O)NC%11=O)nn(C)c%10c9)CC8)CC7C6)CC5)nc4c3F)c12` (centres unmarked) [Compound 138], more than 60%.
On the same count and under the same terms, as for `C#Cc1c(F)ccc2cc(O)cc(-c3ncc4c(N5CC6CCC(C5)N6)nc(OCC5(CN6CCC(N7CCC(c8ccc9c(C%10CCC(=O)NC%10=O)nn(C)c9c8)CC7)C(F)(F)C6)CC5)nc4c3F)c12` (centres unmarked) [Compound 139], the figure is 31 to 60%.
Take `C#Cc1c(F)ccc2cc(O)cc(-c3ncc4c(N5CC6CCC(C5)N6)nc(OCC5(CN6CCC(C7CCN(c8ccc(NC9CCC(=O)NC9=O)cc8F)CC7)CC6)CC5)nc4c3F)c12` (centres unmarked) [Compound 140]: the inhibition at 0.05 µM is 31 to 60%.
On to `C#Cc1c(F)ccc2cc(O)cc(-c3ncc4c(N5CC6CCC(C5)N6)nc(OCC5(CN6CCC(CN7CCN(c8cc9c(cc8F)C(=O)N(C8CCC(=O)NC8=O)C9=O)CC7)CC6)CC5)nc4c3F)c12` (centres unmarked) [Compound 141], for which the inhibition at 0.05 µM lay in the range of 11 to 30%.
Take `C#Cc1c(F)ccc2cc(O)cc(-c3ncc4c(N5CC6CCC(C5)N6)nc(OCC5(CN6CCC(N7CCN(c8ccc(NC9CCC(=O)NC9=O)cc8F)CC7)CC6)CC5)nc4c3F)c12` (centres unmarked) [Compound 142]: the inhibition at 0.05 µM lay in the range of 31 to 60%.
`C#Cc1c(F)ccc2cc(O)cc(-c3ncc4c(N5CC6CCC(C5)N6)nc(OC5CCN(CCCCCNC(=O)CO[C@@H]6C[C@H](C)CC[C@H]6C(C)C)C5)nc4c3F)c12` (some centres unmarked) [Compound 143]: the inhibition at 0.05 µM lay within 11 to 30%.
Consider `C#Cc1c(F)ccc2cc(O)cc(-c3ncc4c(N5CC6CCC(C5)N6)nc(OCC5(CN6CC(CN7CCC(c8ccc9c(C%10CCC(=O)NC%10=O)nn(C)c9c8)CC7)C6)CC5)nc4c3F)c12` (centres unmarked) [Compound 144], for which the inhibition at 0.05 µM fell in the range of 31 to 60%.
Take `C#Cc1c(F)ccc2cc(O)cc(-c3ncc4c(N5CC6CCC(C5)N6)nc(OCC5(CN6CCN(c7ccc(C(=O)NC8CCC(=O)NC8=O)nc7)CC6)CC5)nc4c3F)c12` (centres unmarked) [Compound 145]: the inhibition at 0.05 µM was not above 10%.
Consider `C#Cc1c(F)ccc2cc(O)cc(-c3ncc4c(N5CC6CCC(C5)N6)nc(OCC5(CN6CCC(CC(=O)N7CCC(c8ccc9c(C%10CCC(=O)NC%10=O)nn(C)c9c8)CC7)CC6)CC5)nc4c3F)c12` (centres unmarked) [Compound 147], for which the inhibition at 0.05 µM lay in the range of 31 to 60%.
`C#Cc1c(F)ccc2cc(O)cc(-c3ncc4c(N5CC6CCC(C5)N6)nc(OC5CCN(CCOCCNC(=O)CO[C@@H]6C[C@H](C)CC[C@H]6C(C)C)C5)nc4c3F)c12` (some centres unmarked) [Compound 148]: the inhibition at 0.05 µM is not above 10%.
On to `C#Cc1c(F)ccc2cc(O)cc(-c3ncc4c(N5CC6CCC(C5)N6)nc(OCC5(CN6CCC7(CC6)CC(N6CCN(c8cc9c(cc8F)C(=O)N(C8CCC(=O)NC8=O)C9=O)CC6)C7)CC5)nc4c3F)c12` (centres unmarked) [Compound 152], for which the inhibition at 0.05 µM was 31 to 60%.
On to `C#Cc1c(F)ccc2cc(O)cc(-c3ncc4c(N5CC6CCC(C5)N6)nc(OCC5(CN6CCC7(CC6)CC(N6CCN(c8cccc9c8C(=O)N(C8CCC(=O)NC8=O)C9=O)CC6)C7)CC5)nc4c3F)c12` (centres unmarked) [Compound 153], for which the inhibition at 0.05 µM lay within 31 to 60%.

The experiment is the same for the next values; noted with them: ASPC1, 24 h, Aspc-1 cells treated with 0.1 μM compound, 24 hours; read-out: Rate of protein degradation (KRAS^G12D).
As to `C#Cc1c(F)ccc2cc(O)cc(-c3ncc4c(N5CC6CCC(C5)N6)nc(OC5CCN(CC(=O)N6CCC7(CC6)CC(N6CCC(c8ccc(NC9CCC(=O)NC9=O)cc8F)CC6)C7)CC5)nc4c3F)c12` (centres unmarked) [Compound 114], the inhibition at 0.1 µM is more than 60%.
Turning to `C#Cc1c(F)ccc2cc(O)cc(-c3ncc4c(N5CC6CCC(C5)N6)nc(OCC5(CN6CCN(CC7CCN(c8ccc9c(c8)C(=O)N(C8CCC(=O)NC8=O)C9=O)CC7)CC6)CC5)nc4c3F)c12` (centres unmarked) [Compound 115], the inhibition at 0.1 µM was 31 to 60%.
Turning to `C#Cc1c(F)ccc2cc(O)cc(-c3ncc4c(N5CC6CCC(C5)N6)nc(OCC5(CN6CCN(C(=O)CN7CCN(c8ccc9c(c8)C(=O)N(C8CCC(=O)NC8=O)C9=O)CC7)CC6)CC5)nc4c3F)c12` (centres unmarked) [Compound 116], the inhibition at 0.1 µM lay within 31 to 60%.
`C#Cc1c(F)ccc2cc(O)cc(-c3ncc4c(N5CC6CCC(C5)N6)nc(OCC5(CN6CCN(c7ccc8c(c7)C(=O)N(C7CCC(=O)NC7=O)C8=O)CC6)CC5)nc4c3F)c12` (centres unmarked) [Compound 117]: the inhibition at 0.1 µM was more than 60%.
Same read-out and setting: as for `C#Cc1c(F)ccc2cc(O)cc(-c3ncc4c(N5CC6CCC(C5)N6)nc(OCC5(CN6CCN(C7CC(C(=O)N8CCC(c9ccc%10c(C%11CCC(=O)NC%11=O)nn(C)c%10c9)CC8)C7)CC6)CC5)nc4c3F)c12` (centres unmarked) [Compound 118], the figure is more than 60%; as for `C#Cc1c(F)ccc2cc(O)cc(-c3ncc4c(N5CC6CCC(C5)N6)nc(OC5CCN(CCCCCCOc6cc(-c7scnc7C)ccc6CNC(=O)[C@@H]6C[C@@H](O)CN6C(=O)[C@@H](NC(=O)C6(F)CC6)C(C)(C)C)CC5)nc4c3F)c12` [Compound 131], not above 10%; as for `C#Cc1c(F)ccc2cc(O)cc(-c3ncc4c(N5CC6CCC(C5)N6)nc(OCCN5CCN(C(=O)CCCCCOc6cc(-c7scnc7C)ccc6CNC(=O)[C@@H]6C[C@@H](O)CN6C(=O)[C@@H](NC(=O)C6(F)CC6)C(C)(C)C)CC5)nc4c3F)c12` [Compound 132], 11 to 30%.
On the same count and under the same terms, as for `C#Cc1c(F)ccc2cc(O)cc(-c3ncc4c(N5CC6CCC(C5)N6)nc(OCC5(CN6CCC(CN7CCN(c8cc9c(cc8F)C(=O)N(C8CCC(=O)NC8=O)C9=O)CC7)CC6)CC5)nc4c3F)c12` (centres unmarked) [Compound 141], the figure is more than 60%.

The experiment is the same for the next values; noted with them: Aspc-1 cells treated with 0.1 μM compound, 24 hours.
Turning to `C#Cc1c(F)ccc2cc(O)cc(-c3ncc4c(N5CC6CCC(C5)N6)nc(OCC5(CN6CCN(C(=O)CN7CCC(c8ccc9c(C%10CCC(=O)NC%10=O)nn(C)c9c8)CC7)CC6)CC5)nc4c3F)c12` (centres unmarked) [Compound 119], the “Rate of protein degradation (KRAS^G12D)” value was “+ (11 to 30%)”.

Still in this experiment, the particulars now being: Aspc-1 cells; read-out: DC50 of test compound-induced KRAS^G12D protein degradation.
The term DC50 denotes the midpoint of the concentration-degradation curve. Turning to `C#Cc1c(F)ccc2cc(O)cc(-c3ncc4c(N5CC6CCC(C5)N6)nc(OC5CCN(CC(=O)N6CCC7(CC6)CC(N6CCC(c8ccc(NC9CCC(=O)NC9=O)cc8F)CC6)C7)CC5)nc4c3F)c12` (centres unmarked) [Compound 114], the DC50 was less than 10 nM.
Take `C#Cc1c(F)ccc2cc(O)cc(-c3ncc4c(N5CC6CCC(C5)N6)nc(OCC5(CN6CCN(CC7CCN(c8ccc9c(c8)C(=O)N(C8CCC(=O)NC8=O)C9=O)CC7)CC6)CC5)nc4c3F)c12` (centres unmarked) [Compound 115]: the DC50 fell in the range of 11 to 50 nM.
As for `C#Cc1c(F)ccc2cc(O)cc(-c3ncc4c(N5CC6CCC(C5)N6)nc(OCC5(CN6CCN(C7CC(C(=O)N8CCC(c9ccc%10c(C%11CCC(=O)NC%11=O)nn(C)c%10c9)CC8)C7)CC6)CC5)nc4c3F)c12` (centres unmarked) [Compound 118], the DC50 was less than 10 nM.
